According to patent US12466821B2 (Novartis AG, priority 2018, dated 2025):

Legend:
[1] = target: human HSV DNA polymerase UL30 (Human herpesvirus 1 (strain 17) (HHV-1) (Human herpes simplex virus 1), UniProt P04293); assay: HSV polymerase biochemical assay (molecular beacon-based)
Method in brief: (§1)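 Full-length wild-type N-terminal MBP-fusion polymerases from sf9 cells were used at 100 pM (CMV) or 625 pM (HSV) in Tris pH 7.5, 10 mM MgCl2, and preincubated with inhibitor for 30 min at RT. Reactions with 1.25 uM each dNTP, 200 nM primer and 100 nM molecular beacon ran 60 min (CMV) or 20 min (HSV) at RT. Fluorescence was read at 480/535 nm and IC50 derived.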

[2] = target: human CMV DNA polymerase UL54 (Human cytomegalovirus (strain AD169) (HHV-5) (Human herpesvirus 5), UniProt P08546); assay: CMV polymerase biochemical assay (molecular beacon-based)
Method in brief: as §1

[3] = system: Luciferase-encoding HCMV, AD169 strain; assay: CMV Luciferase assay (cellular herpesvirus replication); type: cell-based; settings: Human betaherpesvirus 5, AD169, read-out: CMV-Luc Cellular EC50
Method in brief: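 Reporter HCMV AD169 with luciferase driven by late pp28 promoter, so signal requires viral DNA replication; NN-NHDF fibroblasts in 2% FBS medium, compound (0.0159–50 or 0.00318–10 μM, 0.5% DMSO) added 1 h before infection at MOI 1. Luminescence read 72 hpi; EC50 from 4-parameter fit of control-normalized %.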

Structure (SMILES)	IC50 [1] [nM]	IC50 [2] [nM]	EC50 [3] [nM]
CC(C)(CO)S(=O)(=O)C1(CN2CCn3c(ccc(C(=O)NCc4ccc(Cl)cc4)c3=O)C2=O)CC1 [Example 180, N-(4-chlorobenzyl)-2-((1-((1-hydroxy-2-methylpropan-2-yl)sulfonyl)cyclopropyl)methyl)-1,6-dioxo-1,3,4,6-tetrahydro-2H-pyrido[1,2-a]pyrazine-7-carboxamide]	22.7	0.2	6.2
CC(CCO)S(=O)(=O)C1(CN2CCn3c(ccc(C(=O)NCc4ccc(C#N)cc4)c3=O)C2=O)CC1 (stereo not drawn) [Example 5, N-(4-cyanobenzyl)-2-((1-((4-hydroxybutan-2-yl)sulfonyl)cyclopropyl)methyl)-1,6-dioxo-2,3,4,6-tetrahydro-1H-pyrido[1,2-a]pyrazine-7-carboxamide]	105	2.2	470
O=C(NCc1ccc(Cl)cc1)c1ccc2n(c1=O)CCN(CC1(S(=O)(=O)C3(CO)CC3)CC1)C2=O [Example 10, N-(4-chlorobenzyl)-2-((1-((1-(hydroxymethyl)cyclopropyl)sulfonyl)cyclopropyl)methyl)-1,6-dioxo-2,3,4,6-tetrahydro-1H-pyrido[1,2-a]pyrazine-7-carboxamide]	18.8	0.3	4.9
CC(C)(CN)S(=O)(=O)C1(CN2CCn3c(ccc(C(=O)NCc4ccc(Cl)cc4)c3=O)C2=O)CC1 [Example 181, 2-((1-((1-amino-2-methylpropan-2-yl)sulfonyl)cyclopropyl)methyl)-N-(4-chlorobenzyl)-1,6-dioxo-1,3,4,6-tetrahydro-2H-pyrido[1,2-a]pyrazine-7-carboxamide]	37.4	1.1	5.1
N#Cc1ccc(CNC(=O)c2ccc3n(c2=O)CCN(CC2(S(=O)(=O)C4CCC4)CC2)C3=O)cc1 [Example 79-1]	33.4	1.3	33.7
CC(=O)NS(=O)(=O)C1(CN2CCn3c(ccc(C(=O)NCc4ccc(Cl)cc4)c3=O)C2=O)CC1 [Example 72-3, 2-((1-(N-acetylsulfamoyl)cyclopropyl)methyl)-N-(4-chlorobenzyl)-1,6-dioxo-2,3,4,6-tetrahydro-1H-pyrido[1,2-a]pyrazine-7-carboxamide]	31.1	0.8	805
CN(CCN1CCn2c(ccc(C(=O)NCc3ccc(Cl)cc3)c2=O)C1=O)S(=O)(=O)C1CC1 [Example 60]	888	124	1250
CC(C)(c1ncno1)S(=O)(=O)C1(CN2CCn3c(ccc(C(=O)NCc4ccc(C#N)cc4)c3=O)C2=O)CC1 [Example 179]	16.9	0.4	125
Cc1cc(C(=O)NCc2ccc(C#N)c(F)c2)c(=O)n2c1C(=O)N(CC1(S(=O)(=O)C3CC3)CC1)CC2 [Example 93-3]	28.3	5.9	21
Cc1cc(C(=O)NCc2ccc(Cl)cc2)c(=O)n2c1C(=O)N(CCN1CCCS1(=O)=O)CC2 [Example 66-1]	125	37.5	417
CC1(CS(=O)(=O)C2(CN3CCn4c(ccc(C(=O)NCc5ccc(Cl)cc5)c4=O)C3=O)CC2)COC1 [Example 103-1]	109	9.4	237
Cc1cc(C(=O)NCc2ccc(Cl)cc2)c(=O)n2c1C(=O)N(CCCS(C)(=O)=O)CC2 [Example 152]	1670	653	9190
O=C(NCc1ccc(Cl)nc1)c1ccc2n(c1=O)CCN(CC1(S(=O)(=O)C3(CO)CC3)CC1)C2=O [Example 50-2]	72.8	6.4	122
CC(C)(CO)S(=O)(=O)C1(CN2CCn3c(ccc(C(=O)NCc4ccc(C#N)nc4)c3=O)C2=O)CC1 [Example 183]	36.7	2.9	145
N#Cc1ccc(CNC(=O)c2ccc3n(c2=O)CCN(CC2(S(=O)(=O)C4CCC4)CC2)C3=O)cc1F [Example 79-2]	65.4	2	34.3
CN(CCN1CCn2c(ccc(C(=O)NCc3ccc(Cl)cc3)c2=O)C1=O)C(=O)OC(C)(C)C [Example 54, tert-butyl (2-(7-((4-chlorobenzyl)carbamoyl)-1,6-dioxo-3,4-dihydro-1H-pyrido[1,2-a]pyrazin-2(6H)-yl)ethyl)(methyl)carbamate]	1930	292	4340
CS(=O)(=O)N1CCC1CN1CCn2c(ccc(C(=O)NCc3ccc(Cl)cc3)c2=O)C1=O (stereo not drawn) [Example 66]	1180	112	1520
O=C(NCc1ccc(Cl)cc1)c1cc(Br)c2n(c1=O)CCN(CCN1CCCS1(=O)=O)C2=O [Example 124, 9-bromo-N-(4-chlorobenzyl)-2-(2-(1,1-dioxidoisothiazolidin-2-yl)ethyl)-1,6-dioxo-1,3,4,6-tetrahydro-2H-pyrido[1,2-a]pyrazine-7-carboxamide]	310	83.1	874
CS(=O)(=O)N1CC(CN2CCn3c(ccc(C(=O)NCc4ccc(Cl)cc4)c3=O)C2=O)C1 [Example 65]	11500	614	15100
CNS(=O)(=O)C1(CN2CCn3c(ccc(C(=O)NCc4ccc(Cl)cc4)c3=O)C2=O)CC1 [Example 74-2]	52.1	1.6	14.5
CS(=O)(=O)C1(CN2CCn3c(ccc(C(=O)NCC4CCC5(CC4)CC5)c3=O)C2=O)CC1 [Example 42]	12800	43.2	7490
C[S@](=N)(=O)C1(CN2CCn3c(ccc(C(=O)NCc4ccc(Cl)cc4)c3=O)C2=O)CC1 (single isomer, unassigned) [Example 96-2]	1920	66.5	847
CN(CCN1CCn2c(c(C(F)F)cc(C(=O)NCc3ccc(Cl)cc3)c2=O)C1=O)S(C)(=O)=O [Example 143, N-(4-chlorobenzyl)-9-(difluoromethyl)-2-(2-(N-methylmethylsulfonamido)ethyl)-1,6-dioxo-1,3,4,6-tetrahydro-2H-pyrido[1,2-a]pyrazine-7-carboxamide]	6310	649	30600
CN1CC(S(=O)(=O)C2(CN3CCn4c(ccc(C(=O)NCc5ccc(C#N)c(F)c5)c4=O)C3=O)CC2)C1 [Example 17, N-(4-cyano-3-fluorobenzyl)-2-((1-((1-methylazetidin-3-yl)sulfonyl)cyclopropyl)methyl)-1,6-dioxo-2,3,4,6-tetrahydro-1H-pyrido[1,2-a]pyrazine-7-carboxamide]	380	14.7	905
C[S@@+]([O-])C1(CN2CCn3c(ccc(C(=O)NCc4ccc(Cl)cc4)c3=O)C2=O)CC1 (single isomer, unassigned) [Example 67-2, N-(4-chlorobenzyl)-2-((1-(methylsulfinyl)cyclopropyl)methyl)-1,6-dioxo-2,3,4,6-tetrahydro-1H-pyrido[1,2-a]pyrazine-7-carboxamide]	1120	35.8	478
CCS(=O)(=O)CCN1CCn2c(ccc(C(=O)NCc3ccc(Cl)cc3)c2=O)C1=O [Example 53]	365	149	1460
CS(=O)(=O)CCCN1CCn2c(c(C(F)F)cc(C(=O)NCc3ccc(Cl)cc3)c2=O)C1=O [Example 145]	6820	1410	30200
